# Data as given in the kinase profiling compilation of Christmann-Franck et al. (2016).
# Assays:
# Experiment in all cases: radiometric filter-binding kinase assay, Kinase HotSpot
# Conditions in all cases: compound 0.5 µM; ATP 10 µM
# [1] = biological target: AKT2 (human) (UniProt P31751)
# [2] = biological target: MYLK (human) (UniProt Q15746)
# [3] = biological target: SLK (human) (UniProt Q9H2G2)
# [4] = biological target: PTK6 (human) (UniProt Q13882)
# [5] = biological target: INSRR (human) (UniProt P14616)
# [6] = biological target: AXL (human) (UniProt P30530)
# [7] = biological target: PDGFRA (human) (UniProt P16234)
# [8] = biological target: SRPK3 (human) (UniProt Q9UPE1)
# [9] = biological target: GSG2 (human) (UniProt Q8TF76)
# [10] = biological target: MAPK3 (human) (UniProt P27361)
# [11] = biological target: GRK7 (human) (UniProt Q8WTQ7)
# [12] = biological target: MARK2 (human) (UniProt Q7KZI7)
# [13] = biological target: DYRK1B (human) (UniProt Q9Y463)
# [14] = biological target: FGFR1 (human) (UniProt P11362)
# [15] = biological target: ACVR1B (human) (UniProt P36896)
# [16] = test system: MKNK1 (human), Q9BUB5 [T385D; 165-205 del]
# [17] = biological target: ABL1 (human) (UniProt P00519)
# [18] = biological target: CHUK (human) (UniProt O15111)
# [19] = biological target: MARK1 (human) (UniProt Q9P0L2)
# [20] = biological target: MLTK (human) (UniProt Q9NYL2)
# [21] = biological target: TEK (human) (UniProt Q02763)
# [22] = biological target: CDC42BPA (human) (UniProt Q5VT25)
# [23] = biological target: IRAK1 (human) (UniProt P51617)
# [24] = biological target: CAMK4 (human) (UniProt Q16566)
# [25] = biological target: FLT3 (human) (UniProt P36888)
# [26] = biological target: NEK9 (human) (UniProt Q8TD19)
# [27] = biological target: STK25 (human) (UniProt O00506)
# [28] = biological target: PRKCB1 (human) (UniProt P05771)
# [29] = biological target: NEK3 (human) (UniProt P51956)
# [30] = biological target: FES (human) (UniProt P07332)
# [31] = biological target: PHKG1 (human) (UniProt Q16816)
# [32] = biological target: MAPK9 (human) (UniProt P45984)
# [33] = biological target: CLK3 (human) (UniProt P49761)
# [34] = biological target: PLK1 (human) (UniProt P53350)
# [35] = biological target: WNK3 (human) (UniProt Q9BYP7)
# [36] = biological target: CDK6 CCND1 (human) (UniProt Q00534+P24385)
# [37] = biological target: FGR (human) (UniProt P09769)
# [38] = biological target: CSF1R (human) (UniProt P07333)
# [39] = biological target: CAMK2B (human) (UniProt Q13554)
# [40] = biological target: NEK7 (human) (UniProt Q8TDX7)
# [41] = biological target: CSNK1D (human) (UniProt P48730)
# [42] = biological target: PRKACA (human) (UniProt P17612)
# FES (human), sequence (P07332 whole entry, looked up): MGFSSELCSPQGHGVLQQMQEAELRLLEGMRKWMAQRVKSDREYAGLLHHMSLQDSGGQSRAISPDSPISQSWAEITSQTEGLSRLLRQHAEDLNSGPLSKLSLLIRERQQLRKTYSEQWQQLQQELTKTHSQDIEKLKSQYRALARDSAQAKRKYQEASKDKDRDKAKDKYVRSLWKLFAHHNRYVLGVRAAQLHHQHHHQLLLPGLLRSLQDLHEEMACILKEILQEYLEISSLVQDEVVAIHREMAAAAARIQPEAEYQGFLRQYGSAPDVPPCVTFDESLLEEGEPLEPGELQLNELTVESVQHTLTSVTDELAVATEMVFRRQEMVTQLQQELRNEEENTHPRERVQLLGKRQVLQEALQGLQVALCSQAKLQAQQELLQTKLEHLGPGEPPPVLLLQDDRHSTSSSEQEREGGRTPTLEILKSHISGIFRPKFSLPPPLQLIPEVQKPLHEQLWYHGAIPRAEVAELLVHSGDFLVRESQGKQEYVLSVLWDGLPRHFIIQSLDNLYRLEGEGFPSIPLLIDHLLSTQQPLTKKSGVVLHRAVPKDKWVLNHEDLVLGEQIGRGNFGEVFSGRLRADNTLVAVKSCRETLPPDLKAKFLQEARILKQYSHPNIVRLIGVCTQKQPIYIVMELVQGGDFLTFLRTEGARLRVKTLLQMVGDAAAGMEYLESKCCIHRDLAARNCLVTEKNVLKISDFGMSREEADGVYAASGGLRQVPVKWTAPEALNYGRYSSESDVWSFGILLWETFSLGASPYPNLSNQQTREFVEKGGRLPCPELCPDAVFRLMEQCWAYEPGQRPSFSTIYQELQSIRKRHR
# AKT2 (human), sequence (P31751 whole entry, looked up): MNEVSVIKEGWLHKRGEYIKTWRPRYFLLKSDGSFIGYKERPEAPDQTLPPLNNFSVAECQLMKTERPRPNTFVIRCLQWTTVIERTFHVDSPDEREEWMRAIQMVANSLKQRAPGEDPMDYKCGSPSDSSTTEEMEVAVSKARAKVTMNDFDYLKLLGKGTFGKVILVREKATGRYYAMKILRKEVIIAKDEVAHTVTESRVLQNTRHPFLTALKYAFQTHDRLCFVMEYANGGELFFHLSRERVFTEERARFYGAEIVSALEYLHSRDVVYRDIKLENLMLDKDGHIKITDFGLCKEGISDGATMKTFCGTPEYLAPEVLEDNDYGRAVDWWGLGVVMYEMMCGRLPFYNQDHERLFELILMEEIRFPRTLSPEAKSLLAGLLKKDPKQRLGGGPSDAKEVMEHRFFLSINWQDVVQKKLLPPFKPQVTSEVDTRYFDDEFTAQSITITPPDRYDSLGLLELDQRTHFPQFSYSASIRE
# NEK9 (human), sequence (Q8TD19 whole entry, looked up): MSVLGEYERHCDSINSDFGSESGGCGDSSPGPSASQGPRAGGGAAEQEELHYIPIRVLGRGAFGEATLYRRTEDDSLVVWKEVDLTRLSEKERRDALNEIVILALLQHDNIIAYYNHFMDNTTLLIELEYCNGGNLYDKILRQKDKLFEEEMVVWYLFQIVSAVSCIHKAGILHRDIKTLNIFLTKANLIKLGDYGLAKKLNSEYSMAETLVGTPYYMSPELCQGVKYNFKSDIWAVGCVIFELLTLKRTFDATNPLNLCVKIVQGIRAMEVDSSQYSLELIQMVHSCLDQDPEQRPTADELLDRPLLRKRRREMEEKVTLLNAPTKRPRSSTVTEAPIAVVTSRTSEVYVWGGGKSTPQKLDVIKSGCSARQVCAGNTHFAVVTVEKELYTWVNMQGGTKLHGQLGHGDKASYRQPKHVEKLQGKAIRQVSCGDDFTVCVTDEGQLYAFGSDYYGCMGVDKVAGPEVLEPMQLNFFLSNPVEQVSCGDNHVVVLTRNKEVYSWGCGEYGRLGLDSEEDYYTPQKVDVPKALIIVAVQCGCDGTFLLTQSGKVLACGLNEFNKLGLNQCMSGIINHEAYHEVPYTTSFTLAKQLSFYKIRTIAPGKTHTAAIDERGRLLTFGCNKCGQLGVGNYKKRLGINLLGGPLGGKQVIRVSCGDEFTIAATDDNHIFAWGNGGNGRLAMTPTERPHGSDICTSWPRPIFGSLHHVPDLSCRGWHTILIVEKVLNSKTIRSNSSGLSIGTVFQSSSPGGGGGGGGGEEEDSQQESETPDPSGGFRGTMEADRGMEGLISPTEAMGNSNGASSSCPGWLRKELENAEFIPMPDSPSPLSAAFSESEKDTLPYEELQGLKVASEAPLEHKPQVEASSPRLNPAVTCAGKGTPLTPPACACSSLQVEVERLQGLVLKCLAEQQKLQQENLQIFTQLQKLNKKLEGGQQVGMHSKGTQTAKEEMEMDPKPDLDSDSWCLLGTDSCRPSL
# CDC42BPA (human), sequence (Q5VT25 whole entry, looked up): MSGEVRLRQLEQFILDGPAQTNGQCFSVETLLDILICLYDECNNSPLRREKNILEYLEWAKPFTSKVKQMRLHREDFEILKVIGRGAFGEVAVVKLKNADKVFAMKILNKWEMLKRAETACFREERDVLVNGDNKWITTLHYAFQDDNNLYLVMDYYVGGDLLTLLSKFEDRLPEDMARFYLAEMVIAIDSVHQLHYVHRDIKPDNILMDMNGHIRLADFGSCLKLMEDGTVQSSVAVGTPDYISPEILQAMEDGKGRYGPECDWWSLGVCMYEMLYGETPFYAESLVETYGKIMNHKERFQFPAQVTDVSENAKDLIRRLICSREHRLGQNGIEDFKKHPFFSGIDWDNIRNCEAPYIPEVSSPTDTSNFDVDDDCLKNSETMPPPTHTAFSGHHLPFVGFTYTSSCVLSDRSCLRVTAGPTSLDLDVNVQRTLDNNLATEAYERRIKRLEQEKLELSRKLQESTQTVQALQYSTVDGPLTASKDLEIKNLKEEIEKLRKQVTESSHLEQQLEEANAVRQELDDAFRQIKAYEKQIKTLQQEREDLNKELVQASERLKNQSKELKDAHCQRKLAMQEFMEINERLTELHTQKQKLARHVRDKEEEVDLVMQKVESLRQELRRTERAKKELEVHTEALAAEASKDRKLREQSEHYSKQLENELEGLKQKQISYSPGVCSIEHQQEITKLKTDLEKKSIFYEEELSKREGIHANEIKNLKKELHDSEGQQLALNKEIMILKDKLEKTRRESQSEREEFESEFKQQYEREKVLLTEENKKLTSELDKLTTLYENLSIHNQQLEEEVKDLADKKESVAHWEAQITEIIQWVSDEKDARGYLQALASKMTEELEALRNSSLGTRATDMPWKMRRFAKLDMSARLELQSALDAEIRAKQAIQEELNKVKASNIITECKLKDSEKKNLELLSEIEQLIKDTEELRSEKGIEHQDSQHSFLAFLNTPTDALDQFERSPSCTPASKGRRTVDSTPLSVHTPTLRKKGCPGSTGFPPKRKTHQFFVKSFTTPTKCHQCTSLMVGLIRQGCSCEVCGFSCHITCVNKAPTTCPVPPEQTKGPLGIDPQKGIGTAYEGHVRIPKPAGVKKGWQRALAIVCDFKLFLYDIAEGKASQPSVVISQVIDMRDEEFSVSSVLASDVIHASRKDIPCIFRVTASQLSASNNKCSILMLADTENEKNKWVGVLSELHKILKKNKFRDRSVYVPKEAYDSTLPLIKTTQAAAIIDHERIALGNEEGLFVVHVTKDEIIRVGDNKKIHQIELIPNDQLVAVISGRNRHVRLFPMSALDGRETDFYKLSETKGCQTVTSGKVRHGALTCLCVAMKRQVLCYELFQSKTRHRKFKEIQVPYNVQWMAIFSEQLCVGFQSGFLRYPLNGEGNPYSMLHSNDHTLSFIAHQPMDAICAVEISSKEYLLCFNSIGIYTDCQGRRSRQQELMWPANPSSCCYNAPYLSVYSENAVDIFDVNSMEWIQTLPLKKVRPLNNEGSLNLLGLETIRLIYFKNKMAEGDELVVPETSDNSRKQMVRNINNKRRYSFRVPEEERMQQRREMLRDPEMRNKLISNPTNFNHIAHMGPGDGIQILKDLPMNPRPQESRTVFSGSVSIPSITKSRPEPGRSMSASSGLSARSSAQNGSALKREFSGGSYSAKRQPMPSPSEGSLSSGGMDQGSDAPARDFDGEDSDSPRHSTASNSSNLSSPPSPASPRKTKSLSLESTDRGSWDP
# MARK2 (human), sequence (Q7KZI7 whole entry, looked up): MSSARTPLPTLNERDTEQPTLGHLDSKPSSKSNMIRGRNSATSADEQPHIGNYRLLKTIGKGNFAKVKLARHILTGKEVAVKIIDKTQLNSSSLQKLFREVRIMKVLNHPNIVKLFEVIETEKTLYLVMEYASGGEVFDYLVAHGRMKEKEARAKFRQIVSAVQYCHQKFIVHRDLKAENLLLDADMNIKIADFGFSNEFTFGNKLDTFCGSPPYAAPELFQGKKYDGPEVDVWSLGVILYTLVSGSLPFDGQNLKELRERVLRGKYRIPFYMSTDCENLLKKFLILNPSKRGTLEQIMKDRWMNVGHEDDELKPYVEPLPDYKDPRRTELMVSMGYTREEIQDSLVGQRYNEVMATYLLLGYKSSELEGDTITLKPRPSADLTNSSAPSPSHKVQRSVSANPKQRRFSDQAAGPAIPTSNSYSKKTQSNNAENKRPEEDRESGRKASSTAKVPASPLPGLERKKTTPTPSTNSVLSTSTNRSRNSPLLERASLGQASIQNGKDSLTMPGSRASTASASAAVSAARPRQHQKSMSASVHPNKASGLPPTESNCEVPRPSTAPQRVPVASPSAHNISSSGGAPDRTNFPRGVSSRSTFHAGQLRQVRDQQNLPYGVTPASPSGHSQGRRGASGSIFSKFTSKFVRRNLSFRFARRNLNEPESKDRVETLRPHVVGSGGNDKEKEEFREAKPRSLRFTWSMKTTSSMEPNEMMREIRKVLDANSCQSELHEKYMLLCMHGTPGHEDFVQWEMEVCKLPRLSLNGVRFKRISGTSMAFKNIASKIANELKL
# NEK7 (human), sequence (Q8TDX7 whole entry, looked up): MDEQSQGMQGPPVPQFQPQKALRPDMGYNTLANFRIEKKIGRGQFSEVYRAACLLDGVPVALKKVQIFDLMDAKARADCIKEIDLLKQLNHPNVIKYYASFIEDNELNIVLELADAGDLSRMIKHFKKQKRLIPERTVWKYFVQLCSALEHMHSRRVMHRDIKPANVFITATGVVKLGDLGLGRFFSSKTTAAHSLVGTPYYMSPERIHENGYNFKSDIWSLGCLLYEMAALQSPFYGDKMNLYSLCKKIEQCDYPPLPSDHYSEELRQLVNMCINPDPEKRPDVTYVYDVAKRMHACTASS
structure (smiles),measurement,setting,value
C[C@@H]1CCN(C(=O)CC#N)C[C@@H]1N(C)c1ncnc2[nH]ccc12,residual activity,[1],98%
same,residual activity,[2],89.9%
same,residual activity,[3],89.2%
same,residual activity,[4],101%
same,residual activity,[5],97.5%
same,residual activity,[6],97.7%
same,residual activity,[7],104%
same,residual activity,[8],103%
same,residual activity,[9],77.9%
same,residual activity,[10],98.6%
same,residual activity,[11],102%
same,residual activity,[12],91.8%
same,residual activity,[13],97%
same,residual activity,[14],101%
same,residual activity,[15],99.8%
same,residual activity,[16],89.9%
same,residual activity,[17],101%
same,residual activity,[18],95%
same,residual activity,[19],119%
same,residual activity,[20],98.2%
same,residual activity,[21],96.6%
same,residual activity,[22],110%
same,residual activity,[23],93.9%
same,residual activity,[24],96.3%
same,residual activity,[25],77.9%
same,residual activity,[26],96.2%
same,residual activity,[27],97.2%
same,residual activity,[28],101%
same,residual activity,[29],94.5%
same,residual activity,[30],104%
same,residual activity,[31],90%
same,residual activity,[32],112%
same,residual activity,[33],106%
same,residual activity,[34],101%
same,residual activity,[35],104%
same,residual activity,[36],96.5%
same,residual activity,[37],91.1%
same,residual activity,[38],101%
Fc1ccc(-c2nc3n(c2-c2ccncc2)CCS3)cc1,residual activity,[1],95.9%
same,residual activity,[2],105%
same,residual activity,[39],90%
same,residual activity,[3],110%
same,residual activity,[4],84.8%
same,residual activity,[5],102%
same,residual activity,[6],95.8%
same,residual activity,[7],98%
same,residual activity,[8],98.5%
same,residual activity,[9],104%
same,residual activity,[10],103%
same,residual activity,[11],104%
same,residual activity,[12],96.4%
same,residual activity,[13],104%
same,residual activity,[14],93.4%
same,residual activity,[15],115%
same,residual activity,[16],102%
same,residual activity,[17],102%
same,residual activity,[18],104%
same,residual activity,[19],102%
same,residual activity,[20],100%
same,residual activity,[21],95.6%
same,residual activity,[40],105%
same,residual activity,[22],88.7%
same,residual activity,[23],125%
same,residual activity,[24],99.8%
same,residual activity,[25],94.7%
same,residual activity,[26],102%
same,residual activity,[27],104%
same,residual activity,[28],94.2%
same,residual activity,[41],6.99%
same,residual activity,[29],96.9%
same,residual activity,[30],104%
same,residual activity,[31],94.6%
same,residual activity,[32],90.6%
same,residual activity,[33],94.4%
same,residual activity,[34],101%
same,residual activity,[35],105%
same,residual activity,[36],97%
same,residual activity,[37],92.6%
same,residual activity,[38],103%
COc1ccc2c(c1)/C(=C/c1cnc[nH]1)C(O)=N2,residual activity,[1],106%
same,residual activity,[2],80.9%
same,residual activity,[3],81.9%
same,residual activity,[4],87.7%
same,residual activity,[5],97.8%
same,residual activity,[6],94.3%
same,residual activity,[7],94.9%
same,residual activity,[8],96.2%
same,residual activity,[9],72.2%
same,residual activity,[42],99.9%
same,residual activity,[10],87.2%
same,residual activity,[11],99.7%
same,residual activity,[12],50%
same,residual activity,[13],53.1%
same,residual activity,[14],73.2%
same,residual activity,[15],105%
same,residual activity,[16],88.4%
same,residual activity,[17],93%
same,residual activity,[18],110%
same,residual activity,[19],50.4%
same,residual activity,[20],91.4%
same,residual activity,[21],98.4%
same,residual activity,[22],98.5%
same,residual activity,[23],101%
same,residual activity,[24],97.4%
same,residual activity,[25],9.29%
same,residual activity,[26],83.2%
same,residual activity,[27],86.2%
same,residual activity,[28],112%
same,residual activity,[41],93.6%
same,residual activity,[29],87.8%
same,residual activity,[30],97%
same,residual activity,[31],53.8%
same,residual activity,[32],101%
same,residual activity,[33],103%
same,residual activity,[34],103%
same,residual activity,[35],88.5%
same,residual activity,[36],13.3%
same,residual activity,[37],80.4%
same,residual activity,[38],88.7%
